Test results as given in US20030134901A1, “Lipoxin compounds and their use in treating cell proliferative disorders” (priority 1993, published 2003).

Tests used:
[1] = tested on: neutrophil adhesion to endothelial cells; assay: Neutrophil adhesion assay; format: cell-based; details: read-out: IC50, PMN adhesion triggered by LTB4 to human endothelial cells; triggered by leukotriene B4
Method: Several of the preferred LX analogs (shown structurally as compounds 1 through 8 above) were prepared by total synthesis as described in Example 1. Following preparation and isolation of these compounds via HPLC, compounds were first assessed to determine whether they retain biological activity using the neutrophil adhesion assay and epithelial cell transmigration assays (as described in Nash, S et al., (1987) J. Clin. Invest. 80:1104-1113; Nash, S et al., (1991) J. Clin. Invest. 87: 1474-1477; Parkos, C. A. et al., (1991) J. Clin. Invest. 88:1605-1612; Parkos, C. A. et al. (1992) J. Cell. Biol. 117:757-764; Madara J. L. et al., (1992) J. Tiss. Cult. Meth. 14:209-216).

[2] = tested on: PMA-treated HL-60 cells; assay: Lipoxin metabolism / bio-half-life assay with phorbol ester-treated HL-60 cells; format: in vitro ADME, human; details: at times up to two hours
Method: HL-60 cells were purchased from American Type Culture Collection (Rockville, Md.), and other cell culture reagents were from GIBCO (Grand Island, N.Y.). Versene (EDTA) was from Whittaker Bioproducts (Walkersville, Md.). Synthetic 11,12-acetylenic LXA4 methyl ester and LXs were from Cascade Biochemical (Reading, U.K.). 15(S)-15-m-PGE1, PGE1, and 5-HETE were from Cayman Chemical Co. (Ann Arbor, Mich.). [11,12-^3H]LXA4 was prepared from 11,12-acetylenic LXA4 using Lindlar catalyst as a custom tritiation (NET-259, lot 0 2793-275, New England Nuclear, Boston, Mass.). Tritiated products were isolated using RP-HPLC (Fiore et al. (1992) J. Biol. Chem. 267:16168; Serhan, C. N. (1990) Meth. Enzymol. 187:167). Methoxyamine and NAD were from Sigma Chemical Company (St. Louis, Mo.). Manganese dioxide and Adams reagent were from Aldrich Chemical Co. (Milwaukee, Wis.).
Human PMN were obtained from healthy volunteers by gradient centrifugation of heparinized fresh venous blood (Böyum, A. ([…]) Scand. J. Clin. Lab. Invest. 21:77). HL-60 cells were seeded in RPMI supplemented with penicillin (100 U/ml), streptomycin (100 μ/ml), fetal bovine serum (10%) (Hyclone, Logan, Utah) and incubated (37° C. with 5% CO2 atmosphere) in plastic 250 ml flasks. Individual flasks containing […] HL-60 cells/ml were incubated in the presence or absence of phorbol 12-myristate 13-acetate (PMA) (10 or 16 nM, 24-27 h) and adherence was monitored for induction of macrophage-like phenotype as in Collins, S. J. (1987) Blood 70:1233. […]
Incubations with eicosanoids were stopped with cold methanol containing either PGB2 or 5-HETE as internal standards (5-HETE was used when 15-oxo-ETE was quantified). […] Formation of 15-oxo-ETE by 100,000 g supernatants (cf. Agins, A. P. et al. (1987) Agents Actions 21:397; Xun, C-Q. et al.(1991) Biochem. J. 279:553; and Sok, D-E. et al. (1988) Biochem. Biophys. Res. Commun. 156:524) was quantified after RP-HPLC using an ODS column (4.6 mm×25 cm) eluted with methanol/H2O/acetic acid (70:30:0.01, v/v/v) monitored at 280 nm with a flow rate of 1 ml/min. […] On-line spectra were recorded using a diode array detector (Hewlett-Packard 1040M series II) equipped with HPLC^3D ChemStation software (DOS series). […]
The “bio-half-life” of compounds 1-8 was assessed using phorbol ester-treated human promyelocytic leukemia (HL-60) cells as described in Example 2. […]

CCCCCC(C)(O)C=CC=CC=CC=CC(O)C(O)CCCC(=O)O (centres unmarked) [compound 2, 15-methyl-LXA4]
IC50 [1]: ~1 nM | recovery in the incubation medium (bio-half-life) [2]: quantitatively recovered
